Results from patent publication US20230142126A1, “METHODS AND COMPOSITIONS FOR THE TREATMENT OF VIRAL DISEASES” (priority 2020, published 2023).
“And” between values parts separate entries of the source, which are not always exact repeats. Identical values can stand only once. Like-named read-outs stand apart in the source and are kept apart here.

Legend:
[1] = tested on: SARS-CoV-2 hCoV-19/USA/WA1/2020; assay type: cell-based
[2] = tested on: SARS-CoV-2; assay: microbe, parasite or virus in culture; assay type: cell-based; settings: for EC90 / EC50: Calu-3, plaque assay; for EC90: estimated
[3] = tested on: Adenovirus (Type 5); assay: CPE antiviral assay (MTS), Adenovirus in HeLa cells; assay type: cell-based; settings: CPE 6 days, at the concentrations tested
[4] = in vitro; settings: human
[5] = tested on: HIV-1 (IIIB); assay: CPE antiviral assay (MTS), HIV-1 in MT-4 cells; assay type: cell-based; settings: CPE 6 days, at the concentrations tested
Description: (§1) Viruses and cells were mixed in the presence of Balicatib (HB-121) and incubated for the assay duration as specified in Table 1. […] An antiviral effect or cytoprotective effect was considered to be observed when therapeutic agent (Balicatib or positive control indicated in Table 1) prevented virus replication. A standardized plate format was used for cytoprotective assays. […] Samples were evaluated for antiviral efficacy with triplicate measurements to determine cytotoxicity, if detectable. […]
(§2) At assay termination, the assay plates were stained with the soluble tetrazolium-based dye MTS (CellTiter®96 Reagent, Promega) to determine cell viability and quantify compound toxicity. MTS is metabolized by the mitochondrial enzymes of metabolically active cells to yield a soluble formazan product, allowing the rapid quantitative analysis of cell viability and compound cytotoxicity. […] Adhesive plate sealers were used in place of the lids, the sealed plates were inverted several times to mix the soluble formazan product and the plate was read spectrophotometrically at 490/650 nm with a Molecular Devices SpectraMax i3 plate reader. […]

[6] = Plasma concentration of Balicatib after oral dosing, based on human clinical dosing; settings: 400 mg oral dosing, EC50 against SARS-CoV-2
[7] = tested on: Dengue virus, serotype 2 (DENV2); assay: CPE antiviral assay (MTS), Dengue virus in BHK-21 cells; assay type: cell-based, New Guinea C; settings: CPE 5 days, at the concentrations tested
Description: as §1, §2

[8] = tested on: Enterovirus 71; assay: CPE (cytoprotection) antiviral assay with MTS readout, Enterovirus 71 in RD cells; assay type: cell-based, Enterovirus (EV-71(H)), strain 71H; settings: for EC50: 50% inhibition of virus replication, read-out: EC 50% (EC50)
Description: Viruses and cells were mixed in the presence of Balicatib (HB-121) and incubated for the assay duration as specified in Table 1. […] An antiviral effect or cytoprotective effect was considered to be observed when therapeutic agent (Balicatib or positive control indicated in Table 1) prevented virus replication. A standardized plate format was used for cytoprotective assays. Each plate contained cell control wells (cells only), virus control wells (cells plus virus), therapeutic agent cytotoxicity wells (cells plus therapeutic agent only), therapeutic agent colorimetric control wells (therapeutic agent only), background control wells (media only), as well as experimental wells (therapeutic agent plus cells plus virus). Samples were evaluated for antiviral efficacy with triplicate measurements to determine cytotoxicity, if detectable. […] Interferon (IFN) was used as positive controls in the assays were noted as IU/mL (bioactivity defined by International Units/mL was used from the certificate of analysis information provided by the vendor, PBL Assay Science, Piscataway, NJ). In Table 2, fields labeled as “Drug 1” or “Drug 2” indicate Cells + Virus + Drug; fields labeled as “Tox 1” or “Tox 2” indicate Cells + Drug 1 or Drug 2, respectively (toxicity tested in duplicate); Cells labeled as “Color 1” or “Color 2” = Media + Drug 1 or Drug 2, respectively (colorimetric background, no cells).
At assay termination, the assay plates were stained with the soluble tetrazolium-based dye MTS (CellTiter®96 Reagent, Promega) to determine cell viability and quantify compound toxicity. MTS is metabolized by the mitochondrial enzymes of metabolically active cells to yield a soluble formazan product, allowing the rapid quantitative analysis of cell viability and compound cytotoxicity. […] At termination of the assay, 10-25 µL of MTS reagent was added per well (10% final concentration based on volume) and the microtiter plates were then incubated for 2-3 hours at 37° C., (except Rhinovirus assay plates, which were incubated at 33° C.) 5% CO2 to assess cell viability. Adhesive plate sealers were used in place of the lids, the sealed plates were inverted several times to mix the soluble formazan product and the plate was read spectrophotometrically at 490/650 nm with a Molecular Devices SpectraMax i3 plate reader.
Using an in-house computer program, the CPE data analysis was conducted and included the calculation of EC50 (50% inhibition of virus replication), EC95 (95% inhibition of virus replication), CC50 (50% cytotoxicity), CC95 (95% cytotoxicity) and selectivity index values (SI = CC/EC; also referred to as Antiviral Index or AI).
The minimum inhibitory drug concentration that reduced plaque formation by 50% (EC50) and the minimum drug concentration that inhibited cell growth by 50% (CC50) were calculated. The selectivity index (SI) for each active compound was determined by dividing the CC50 by the EC50.

[9] = tested on: Coxsackie (A7) (CoxA7); assay: CPE antiviral assay (MTS), Coxsackie A7 in LLC-MK2 7.1 cells; assay type: cell-based; settings: CPE 4 days, at the concentrations tested
[10] = tested on: Rhinovirus 14 (HRV 14); assay: CPE antiviral assay (MTS), Rhinovirus 14 in H1 HeLa cells; assay type: cell-based, strain 1059; settings: 33° C., CPE 4 days, at the concentrations tested
[11] = tested on: Parainfluenza Type 3; assay: CPE antiviral assay (MTS), Parainfluenza in LLC-MK2 7.1 cells; assay type: cell-based, Parainfluenza Type 3 C243; settings: CPE 7 days, at the concentrations tested
Description: as §1, §2

[12] = tested on: RD cells; assay: Cytotoxicity assay (MTS dye reduction) in the cells of the Enterovirus assay; assay type: cell-based; settings: RD cells, 4 days
Description: (§3) Viruses and cells were mixed in the presence of Balicatib (HB-121) and incubated for the assay duration as specified in Table 1. […] An antiviral effect or cytoprotective effect was considered to be observed when therapeutic agent (Balicatib or positive control indicated in Table 1) prevented virus replication. A standardized plate format was used for cytoprotective assays. Each plate contained cell control wells (cells only), virus control wells (cells plus virus), therapeutic agent cytotoxicity wells (cells plus therapeutic agent only), therapeutic agent colorimetric control wells (therapeutic agent only), background control wells (media only), as well as experimental wells (therapeutic agent plus cells plus virus). Samples were evaluated for antiviral efficacy with triplicate measurements to determine cytotoxicity, if detectable. […] Interferon (IFN) was used as positive controls in the assays were noted as IU/mL (bioactivity defined by International Units/mL was used from the certificate of analysis information provided by the vendor, PBL Assay Science, Piscataway, NJ). […]
as §2
(§4) Cells were seeded at 2,500 to 40,000 cells per well in 96-well plates in replication medium as specified in Table 3. […] After the assay readout (duration) as specified in Table 1, cell viability was determined using MTS dye reduction. […]

[13] = as above; assay type: cell-based; settings: human
Description: as §3, §2, §4

[14] = tested on: Calu-3 human cells
[15] = tested on: Respiratory syncytial virus (RSV); assay: CPE antiviral assay (MTS), RSV in HEp-2 cells; assay type: cell-based, Long; settings: CPE 5 days, at the concentrations tested
Description: as §1, §2

[16] = tested on: Measles; assay: CPE antiviral assay (MTS), Measles in MRC-5 cells; assay type: cell-based, Measles Virus (Edmonston); settings: CPE 10 days, at the concentrations tested
Description: as §1, §2

[17] = tested on: Influenza B (Flu B.Bris); assay: CPE antiviral assay (MTS), Influenza B in MDCK cells; assay type: cell-based; settings: CPE 3 days, at the concentrations tested
[18] = tested on: SARS-CoV-2 (strain: BEI_USA-WA1/2020); assay: microbe, parasite or virus in culture; assay type: cell-based; settings: Calu-3, 4 h pretreatment
[19] = tested on: Influenza A (Flu A. Cal); assay: CPE antiviral assay (MTS), Influenza A in MDCK cells; assay type: cell-based, A/California/07/2009; settings: CPE 3 days, at the concentrations tested
Description: as §1, §2

[20] = Severe acute respiratory syndrome coronavirus 2

CCCN1CCN(c2ccc(C(=O)NC3(C(=O)NCC#N)CCCCC3)cc2)CC1 [Balicatib]
titer reduction in virus titer (TCID50) ([1]; 0.3 µM (lowest test concentration), A549-hACE2, MOI 0.1, 24 hours): > 3 log | titer reduction vs virus without Balicatib (TCID50) ([1]; 5 µM, A549-hACE2, MOI 0.1, 24 hours): more than 6 log | reduction of SARS-CoV-2 WA1/2020 ([1]; A549-hACE2 cells, 24 hours): significant reduction | Overall % Inhibition (average of two experiments) Combined ([2]; 100 nM, 0.1 µM): 57.75% | Overall % Inhibition (average of two experiments) Combined ([2]; 10 µM): 99.4% | Selectivity Index (SI) ([2]; Calu-3 cells, calculated from CC50 and EC50): > 300 | inhibition at 0.1 µM ([2]; Severe acute respiratory syndrome coronavirus 2, Calu-3, 100 nM, read-out: Overall % Inhibition (average of two experiments) Combined): ~57% | inhibition at 0.3 µM ([2]; Severe acute respiratory syndrome coronavirus 2, Calu-3, 300 nM, read-out: Overall % Inhibition (average of two experiments) Combined): 90% | inhibition at 1 µM ([2]; Severe acute respiratory syndrome coronavirus 2, Calu-3, 1 µM, read-out: Overall % Inhibition (average of two experiments) Combined): ~68% | inhibition at 3 µM ([2]; Severe acute respiratory syndrome coronavirus 2, Calu-3, 3 µM, read-out: Overall % Inhibition (average of two experiments) Combined): ~100% | inhibition at 10 µM ([2]; Severe acute respiratory syndrome coronavirus 2, Calu-3, 10 µM, read-out: Overall % Inhibition (average of two experiments) Combined): ~100% | inhibition at 30 µM ([2]; Severe acute respiratory syndrome coronavirus 2, Calu-3, 30 µM, read-out: Overall % Inhibition (average of two experiments) Combined): ~100% | inhibition at 0.1 µM ([2]; Severe acute respiratory syndrome coronavirus 2, Calu-3, 72 h, 100 nM, MOI 0.1, 72 h, read-out: % Inhibition Experiment 1): 97.3% | inhibition at 0.1 µM ([2]; Severe acute respiratory syndrome coronavirus 2, Calu-3, 72 h, 100 nM, MOI 0.1, 72 h, read-out: % Inhibition Experiment 2): 18% | inhibition at 0.3 µM ([2]; Severe acute respiratory syndrome coronavirus 2, Calu-3, 72 h, 300 nM, MOI 0.1, 72 h, read-out: % Inhibition Experiment 2): 90% | inhibition at 1 µM ([2]; Severe acute respiratory syndrome coronavirus 2, Calu-3, 72 h, 1 µM, MOI 0.1, 72 h, read-out: % Inhibition Experiment 1): 64% | inhibition at 1 µM ([2]; Severe acute respiratory syndrome coronavirus 2, Calu-3, 72 h, 1 µM, MOI 0.1, 72 h, read-out: % Inhibition Experiment 2): 72.5% | inhibition at 3 µM ([2]; Severe acute respiratory syndrome coronavirus 2, Calu-3, 72 h, 3 µM, MOI 0.1, 72 h, read-out: % Inhibition Experiment 2): 100% | inhibition at 10 µM ([2]; Severe acute respiratory syndrome coronavirus 2, Calu-3, 72 h, 10 µM, MOI 0.1, 72 h, read-out: % Inhibition Experiment 1): 98.8% | inhibition at 10 µM ([2]; Severe acute respiratory syndrome coronavirus 2, Calu-3, 72 h, 10 µM, MOI 0.1, 72 h, read-out: % Inhibition Experiment 2): 100% | inhibition at 30 µM ([2]; Severe acute respiratory syndrome coronavirus 2, Calu-3, 72 h, 30 µM, MOI 0.1, 72 h, read-out: % Inhibition Experiment 2): 100% | EC90 [2, 20]: 1 to 3 µM | EC50 ([2]; Severe acute respiratory syndrome coronavirus 2, estimated from two studies): 0.05 to 0.6 µM | antiviral efficacy [3]: not effective | CC50 [4]: > 100 µM | antiviral efficacy [5]: not effective | time plasma concentration is above EC50 [6]: 16 to 20 h | antiviral efficacy [7]: not effective | EC 25% ([8]; 25% inhibition of virus replication, RD cells, CPE 4 days): 5.85 µM | EC50 ([8]; RD cells, CPE 4 days, listed as HB-121): 22.1 µM | EC 95% (EC95) ([8]; 95% inhibition of virus replication, RD cells, CPE 4 days): >30.0 µM | EC50 ([8]; Enterovirus A, RD, 96 h, RD cells, CPE 4 days): ~20 µM | Selectivity Index (SI) 50% ([8]; SI = CC50/EC50): >1.36 | Selectivity Index (SI) 25% ([8]; SI = CC/EC at 25%): >5.13 | antiviral efficacy [9]: not effective | antiviral efficacy [10]: not effective | antiviral efficacy [11]: not effective | CC 25% ([12]; 25% cytotoxicity): > 30.0 µM | CC 95% (CC95) ([12]; 95% cytotoxicity): > 30.0 µM | CC50 at 4 days [13]: > 30 µM | Cell Appearance ([14]; 100 µM (Table 6)): No CPEs | Viability (%) at 24 hr time point ([14]; 100 µM, 24 hr, 98.7% viability at seeding): 71.0% and 72.1% | effect on cell growth ([14]; 100 µM, Calu-3): little to no effect on cell growth | effect on cellular viability ([14]; 100 µM, Calu-3): does not alter cellular viability | Count (cells/ml) at 24 hr time point ([14]; 100 µM, seeded at 2.0E5 per well, 24 hr): 1.8e5 cells/ml and 1.6e5 cells/ml | antiviral efficacy [15]: not effective | antiviral efficacy [16]: not effective | antiviral efficacy [17]: not effective | EC50 ([18]; Severe acute respiratory syndrome coronavirus 2, MOI 0.01, 48 h post-infection, % infected cells (FIG. 1), read-out: approximate EC50): 0.25 to 0.5 µM | antiviral efficacy [19]: not effective

C[C@@H]1CS/C(=N\NC(=O)C(=O)[C@@H](NC(=O)C2CCCCCC2)C2CCOCC2)N1C [ONO-5334]
% Inhibition ([2]; 1 µM (Table 7)): 79% | % Inhibition ([2]; 10 µM (Table 7)): 100% | EC50 ([2]; estimated from 1 and 10 µM): < 1 µM | antiviral activity (percentage of virus infected cells vs concentration) ([18]; MOI 0.01, 48 h post-infection (FIG. 2, FIG. 3)): demonstrated antiviral activity

CC(C)(F)C[C@H](N[C@@H](c1ccc(-c2ccc(S(C)(=O)=O)cc2)cc1)C(F)(F)F)C(=O)NC1(C#N)CC1 [Odanacatib]
inhibition at 1 µM ([2]; Severe acute respiratory syndrome coronavirus 2, Calu-3, 1 µM (Table 7), read-out: % Inhibition): 48.4% | inhibition at 10 µM ([2]; Severe acute respiratory syndrome coronavirus 2, Calu-3, 10 µM (Table 7), read-out: % Inhibition): 97.1% | EC90 [2, 20]: 1 to 10 µM | EC50 ([2]; Severe acute respiratory syndrome coronavirus 2, estimated from 1 and 10 µM): ~1 µM
